Experimental data as given in PubChem BioAssay (NCI).
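Following 48 hours of exposure in 96-well plates, responses at five concentrations were used to interpolate endpoints linearly. GI50 marks 50% less growth. The concentration for full growth arrest is given as TGI.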

Legend:
Assay in all cases: NCI tumour cell line growth inhibition, 48 h
CCRF-CEM leukemia = system: CCRF-CEM leukemia
COLO 205 colon = system: COLO 205 colon
SR leukemia = system: SR leukemia
SNB-19 CNS = system: SNB-19 CNS
MCF7 breast = system: MCF7 breast
BT-549 breast = system: BT-549 breast
NCI-H522 lung = system: NCI-H522 lung
SF-295 CNS = system: SF-295 CNS
HCT-116 colon = system: HCT-116 colon
A549 NSCLC = system: A549 NSCLC
ACHN renal = system: ACHN renal
A498 renal = system: A498 renal

Structure (SMILES)	TGI (CCRF-CEM leukemia) [µM]	TGI (COLO 205 colon) [µM]	TGI (SR leukemia) [µM]	TGI (SNB-19 CNS) [µM]	TGI (MCF7 breast) [µM]	TGI (BT-549 breast) [µM]	TGI (NCI-H522 lung) [µM]	TGI (SF-295 CNS) [µM]	TGI (HCT-116 colon) [µM]	TGI (A549 NSCLC) [µM]	TGI (ACHN renal) [µM]	TGI (A498 renal) [µM]	GI50 (SF-295 CNS) [µM]	GI50 (ACHN renal) [µM]
Cc1cccc2c1Oc1cc(Cl)ccc1C2NC(=O)CCN1CCCCC1 (stereo not drawn)	32.4	34.6	35	33	33.6	33.4	31.3	33.1	32.1	37.5				
O=C(O)CC(NC(=O)C(F)(F)F)C(=O)NC1Cc2ccccc2OC1=O (stereo not drawn)			> 100	> 100	> 100	> 100	> 100	> 100		> 100	> 100			
COc1cc(/C=C2\C(=O)N(c3cccc(Cl)c3)C(c3ccccc3)S2(=O)=O)cc(OC)c1OC (stereo not drawn)	71.8	> 100		> 100	> 100	> 100	55.8	> 100	> 100	> 100	> 100	> 100		
CN(c1c(Cl)cccc1Cl)S(=O)(=O)c1ccccc1[N+](=O)[O-]		> 100	> 100	> 100	> 100	> 100	> 100	> 100	> 100	> 100	> 100			
C#CCNC(=O)CCC(N)C(=O)O (stereo not drawn)	> 100	> 100		> 100	> 100		> 100	> 100	> 100	> 100		> 100		
O=C1/C(=C/c2ccc(O)cc2)NC(=S)N1CN1CCCCC1	> 100	56.4	> 100	> 100	> 100		> 100	> 100	> 100	> 100	> 100	> 100		
CSCCC(NC(=O)C(Cc1ccccc1)NC(=O)CNC(=O)CNC(=O)C(N)Cc1ccc(O)cc1)C(=O)O (stereo not drawn)	> 100	> 100		> 100	> 100		> 100	> 100	> 100	> 100		> 100		
O=C(N/N=C(/COc1cccc(Cl)c1)N=Cc1ccncc1)c1ccncc1	> 100	> 100		> 100	> 100	> 100	> 100	> 100	> 100	> 100	> 100	> 100		
Clc1cc2nc(C3CCCO3)[nH]c2cc1Cl (stereo not drawn)	> 100	> 100	> 100	> 100	> 100	91.3	66	> 100	> 100	> 100	> 100			
CCOC(=O)/C(C(=S)NC)=C(/N)N1CCCC1	> 100	> 100	> 100	> 100			> 100	> 100	> 100	> 100	> 100	> 100		
CSC1=N/C(=C\c2cccs2)C(=O)N1CN1CCOCC1	> 100	> 100	> 100	> 100	> 100		> 100	> 100	> 100	> 100	> 100	> 100		
ON=C1CCCCC(=NO)CCCC1		> 100		> 100	> 100	> 100	> 100	> 100	> 100	> 100	> 100	> 100		
COCCO		> 100		> 100	> 100		> 100	> 100	> 100	> 100		> 100		
COc1ccc2nc(-c3ccc(OC(=O)N(C)C)cc3)cn2c1	> 100	> 100	> 100	> 100	> 100		> 100	> 100	> 100	> 100	> 100	> 100		
O=[N+]([O-])c1cc2n[nH]nc2c2nonc12	59.9	71.5	> 100	> 100	21.5	24.1	32.6	> 100	43.7	> 100	67.6			
CCN(CC)CCNc1ccc([N+](=O)[O-])c2nc3ccccc3c(N)c12	2.08	1.47	2.39			2.38		1.75	1.5	2.39	3.75	2.91		
CN(C)c1nc(N(C)C)nc(N(C)CN(C)c2ccccc2)n1	> 100			> 100			> 100	> 100	> 100	> 100	> 100			
Cc1ccc2nc3c(C(=O)NCCN(C)C)cccc3cc2c1	5.28	3.25		6.34	11.6			7.14	6.71	4		3.4		
C=CCCCCOC1C=CC(OC(C)=O)C(COC(C)=O)O1 (stereo not drawn)	> 100	> 100		> 100	> 100	> 100	> 100	> 100	> 100	> 100	> 100	> 100		
CSc1ccc2c(c1)c(CCN)c(C)n2Cc1ccc(Cl)c(Cl)c1								3.22			3.08		1.69	1.59
N#CC12COC3(CCCCC3C1(C#N)C#N)OC2=N (stereo not drawn)	22.3	19.2		36	29.5	30.5		43.1	25.1	66.8	30.1	39.3		
NCCCNCCSSCc1ccccc1CSSCCNCCCN	29.8	> 100		> 100			26.7	> 100		> 100	> 100	> 100		
